≈ marks a conversion by molar mass, not a printed value.
Tests used:
[1] = system: mice; settings: mice (i.v.)
[2] = in vivo; settings: mouse, iv
[3] = system: Proteus mirabilis, 1287; experiment: Antibacterial activity in vitro, MIC (Table 2); format: cell-based; settings: MullerHinton Bouillon, 10^6/ml, 37° C., 18 hours, read-out: Minimum Inhibitory Concentration (MIC)
Experimental: (§1) *Determined in MullerHinton Bouillon, 10^6 /ml of bacteria were seede
(§2) and incubated at 37° C. for 18 hours.

[4] = system: Enterobacter cloacae, 12001; experiment: Antibacterial activity in vitro, MIC (Table 2); format: cell-based; settings: MullerHinton Bouillon, 10^6/ml, 37° C., 18 hours, read-out: Minimum Inhibitory Concentration (MIC)
Experimental: as §1, §2

[5] = system: Proteus vulgaris, 3167; experiment: Antibacterial activity in vitro, MIC (Table 2); format: cell-based; settings: MullerHinton Bouillon, 10^6/ml, 37° C., 18 hours, read-out: Minimum Inhibitory Concentration (MIC)
Experimental: as §1, §2

[6] = system: Klebsiella pneumoniae, 501; experiment: Antibacterial activity in vitro, MIC (Table 2); format: cell-based; settings: MullerHinton Bouillon, 10^6/ml, 37° C., 18 hours, read-out: Minimum Inhibitory Concentration (MIC)
Experimental: as §1, §2

[7] = system: Bacillus subtilis, ATCC 6633; experiment: Antibacterial activity in vitro, MIC (Table 2); format: cell-based; settings: ATCC6633, MullerHinton Bouillon, 10^6/ml, 37° C., 18 hours, read-out: Minimum Inhibitory Concentration (MIC)
Experimental: as §1, §2

[8] = system: Pseudomonas sepacia, II D 5132; experiment: Antibacterial activity in vitro, MIC (Table 2); format: cell-based; settings: IID5132, MullerHinton Bouillon, 10^6/ml, 37° C., 18 hours, read-out: Minimum Inhibitory Concentration (MIC)
Experimental: as §1, §2

[9] = system: Serratia marcescens, 13001; experiment: Antibacterial activity in vitro, MIC (Table 2); format: cell-based; settings: MullerHinton Bouillon, 10^6/ml, 37° C., 18 hours, read-out: Minimum Inhibitory Concentration (MIC)
Experimental: as §1, §2

[10] = system: Shigella flexneri 2a, 5503; experiment: Antibacterial activity in vitro, MIC (Table 2); format: cell-based; settings: MullerHinton Bouillon, 10^6/ml, 37° C., 18 hours, read-out: Minimum Inhibitory Concentration (MIC)
Experimental: as §1, §2

[11] = system: Streptococcus pyogenes, G-36; experiment: Antibacterial activity in vitro, MIC (Table 2); format: cell-based; settings: G36, MullerHinton Bouillon, 10^6/ml, 37° C., 18 hours, read-out: Minimum Inhibitory Concentration (MIC)
Experimental: as §1, §2

[12] = system: Escherichia coli NIHJ; experiment: Antibacterial activity in vitro, MIC (Table 2); format: cell-based; settings: MullerHinton Bouillon, 10^6/ml, 37° C., 18 hours, read-out: Minimum Inhibitory Concentration (MIC)
Experimental: as §1, §2

[13] = system: Staphylococcus aureus, 209 P; experiment: Antibacterial activity in vitro, MIC (Table 2); format: cell-based; settings: MullerHinton Bouillon, 10^6/ml, 37° C., 18 hours, read-out: Minimum Inhibitory Concentration (MIC)
Experimental: as §1, §2

[14] = system: Pseudomonas aeruginosa, 2063; experiment: Antibacterial activity in vitro, MIC (Table 2); format: cell-based; settings: MullerHinton Bouillon, 10^6/ml, 37° C., 18 hours, read-out: Minimum Inhibitory Concentration (MIC)
Experimental: as §1, §2

[15] = system: Proteus mirabilis, 1287; experiment: Antibacterial activity in vitro, MIC (Table 1); format: cell-based; settings: dilution method on plate culture (heart infusion agar), 10^6/ml, 37° C., 18 hours, read-out: Minimum Inhibitory Concentration (MIC)
Experimental: (§3) *Determined by the standard method of the Japan Society of Chemotherapy:
(§4) dilution method on plate culture (heart infusion agar culture), 10^6
(§5) /ml of bacteria were seeded and incubated at 37° C. for 18 hours.

[16] = system: Enterobacter cloacae, 12001; experiment: Antibacterial activity in vitro, MIC (Table 1); format: cell-based; settings: read-out: Minimum Inhibitory Concentration (MIC)
Experimental: as §3, §4, §5

[17] = system: Proteus vulgaris, 3167; experiment: Antibacterial activity in vitro, MIC (Table 1); format: cell-based; settings: read-out: Minimum Inhibitory Concentration (MIC)
Experimental: as §3, §4, §5

[18] = system: Klebsiella pneumoniae, 501; experiment: Antibacterial activity in vitro, MIC (Table 1); format: cell-based; settings: dilution method on plate culture (heart infusion agar), 10^6/ml, 37° C., 18 hours, read-out: Minimum Inhibitory Concentration (MIC)
Experimental: as §3, §4, §5

[19] = system: Bacillus subtilis, ATCC 6633; experiment: Antibacterial activity in vitro, MIC (Table 1); format: cell-based; settings: ATCC6633, dilution method on plate culture (heart infusion agar), 10^6/ml, 37° C., 18 hours, read-out: Minimum Inhibitory Concentration (MIC)
Experimental: as §3, §4, §5

[20] = system: Serratia marcescens, 13001; experiment: Antibacterial activity in vitro, MIC (Table 1); format: cell-based; settings: dilution method on plate culture (heart infusion agar), 10^6/ml, 37° C., 18 hours, read-out: Minimum Inhibitory Concentration (MIC)
Experimental: as §3, §4, §5

[21] = system: Shigella flexneri 2a, 5503; experiment: Antibacterial activity in vitro, MIC (Table 1); format: cell-based; settings: dilution method on plate culture (heart infusion agar), 10^6/ml, 37° C., 18 hours, read-out: Minimum Inhibitory Concentration (MIC)
Experimental: as §3, §4, §5

[22] = system: Streptococcus pyogenes, G-36; experiment: Antibacterial activity in vitro, MIC (Table 1); format: cell-based; settings: G36, dilution method on plate culture (heart infusion agar), 10^6/ml, 37° C., 18 hours, read-out: Minimum Inhibitory Concentration (MIC)
Experimental: as §3, §4, §5

[23] = system: Escherichia coli NIHJ; experiment: Antibacterial activity in vitro, MIC (Table 1); format: cell-based; settings: read-out: Minimum Inhibitory Concentration (MIC)
Experimental: as §3, §4, §5

[24] = system: Staphylococcus aureus, 209 P; experiment: Antibacterial activity in vitro, MIC (Table 1); format: cell-based; settings: dilution method on plate culture (heart infusion agar), 10^6/ml, 37° C., 18 hours, read-out: Minimum Inhibitory Concentration (MIC)
Experimental: as §3, §4, §5

[25] = system: Pseudomonas aeruginosa, 2063; experiment: Antibacterial activity in vitro, MIC (Table 1); format: cell-based; settings: dilution method on plate culture (heart infusion agar), 10^6/ml, 37° C., 18 hours, read-out: Minimum Inhibitory Concentration (MIC)
Experimental: as §3, §4, §5

[26] = system: Pseudomonas sepacia, II D 1340; experiment: Antibacterial activity in vitro, MIC (Table 1); format: cell-based; settings: IID1340, dilution method on plate culture (heart infusion agar), 10^6/ml, 37° C., 18 hours, read-out: Minimum Inhibitory Concentration (MIC)
Experimental: as §3, §4, §5

[27] = system: gram-negative and gram-positive bacteria (test organisms); experiment: Antibacterial activity (in vitro), comparison in words; format: cell-based; settings: compounds of this invention versus known compounds / PPA
Experimental: as §3, §4, §5, §1, §2

[28] = Enterobacter cloacae, 12001, dilution method on plate culture (heart infusion agar), 10^6/ml, 37° C., 18 hours
[29] = Proteus vulgaris, 3167, dilution method on plate culture (heart infusion agar), 10^6/ml, 37° C., 18 hours
[30] = Escherichia coli NIHJ, dilution method on plate culture (heart infusion agar), 10^6/ml, 37° C., 18 hours

| Compound | toxicity (in words) [1] | LD50 [2] | MIC [3] | MIC [4] | MIC [5] | MIC [6] | MIC [7] | MIC [8] | MIC [9] | MIC [15] | MIC [16, 28] | MIC [17, 29] | MIC [18] | MIC [19] | MIC [20] | MIC [21] | MIC [22] | MIC [23, 30] | MIC [24] | MIC [25] | further results |
| --- | --- | --- | --- | --- | --- | --- | --- | --- | --- | --- | --- | --- | --- | --- | --- | --- | --- | --- | --- | --- | --- |
| CC1CCc2c(N3CCN(C)CC3)c(F)cc3c(=O)c(C(=O)O)cn1c23 (stereo not drawn) [8-(4-methyl-1-piperazinyl)-9-fluoro-5-methyl-6,7-dihydro-1-oxo-1H,5H-benz[ij]quinolizine-2-carboxylic acid, reference compound] | comparatively high toxicity | 135 mg/kg | – | – | – | – | – | – | – | – | – | – | – | – | – | – | – | – | – | – | – |
| CC1COc2c(N3CCN(C)CC3)c(F)cc3c(=O)c(C(=O)O)cn1c23 (stereo not drawn) [Ia, 9-fluoro-10-(4-methyl-1-piperazinyl)-3-methyl-7-oxo-2,3-dihydro-7H-pyrido[1,2,3-de][1,4]benzoxazine-6-carboxylic acid] | – | 380 mg/kg | 0.1 µg/mL (≈ 0.277 µM) | 0.1 µg/mL (≈ 0.277 µM) | ≤ 0.05 µg/mL | 0.39 µg/mL (≈ 1.08 µM) | 0.1 µg/mL (≈ 0.277 µM) | 12.5 µg/mL (≈ 34.6 µM) | 0.1 µg/mL (≈ 0.277 µM) | 0.1 µg/mL (≈ 0.277 µM) | 0.1 µg/mL (≈ 0.277 µM) | 0.05 µg/mL (≈ 0.138 µM) | 0.2 µg/mL (≈ 0.553 µM) | 0.2 µg/mL (≈ 0.553 µM) | 0.2 µg/mL (≈ 0.553 µM) | 0.05 µg/mL (≈ 0.138 µM) | 1.56 µg/mL (≈ 4.32 µM) | ≤ 0.025 µg/mL | 0.39 µg/mL (≈ 1.08 µM) | 1.56 µg/mL (≈ 4.32 µM) | MIC [10]: ≤ 0.05 µg/mL; MIC [11]: 1.56 µg/mL (≈ 4.32 µM); MIC [12]: ≤ 0.05 µg/mL; MIC [13]: 0.39 µg/mL (≈ 1.08 µM); MIC [14]: 0.78 µg/mL (≈ 2.16 µM) |
| CC1COc2c(N3CCNCC3)c(F)cc3c(=O)c(C(=O)O)cn1c23 (stereo not drawn) [Ib, 9-fluoro-3-methyl-7-oxo-10-(1-piperazinyl)-2,3-dihydro-7H-pyrido[1,2,3-de][1,4]benzoxazine-6-carboxylic acid] | – | – | – | – | – | – | – | – | – | 0.1 µg/mL (≈ 0.288 µM) | 0.2 µg/mL (≈ 0.576 µM) | 0.05 µg/mL (≈ 0.144 µM) | 0.39 µg/mL (≈ 1.12 µM) | 0.39 µg/mL (≈ 1.12 µM) | 0.78 µg/mL (≈ 2.25 µM) | 0.05 µg/mL (≈ 0.144 µM) | 3.13 µg/mL (≈ 9.01 µM) | ≤ 0.025 µg/mL | 0.39 µg/mL (≈ 1.12 µM) | 0.78 µg/mL (≈ 2.25 µM) | MIC [26]: 12.5 µg/mL (≈ 36 µM) |
| CC1COc2c(N3CCC(O)C3)c(F)cc3c(=O)c(C(=O)O)cn1c23 (stereo not drawn) [Ic, 9-fluoro-10-(3-hydroxy-1-pyrrolidinyl)-3-methyl-7-oxo-2,3-dihydro-7H-pyrido[1,2,3-de][1,4]benzoxazine-6-carboxylic acid] | – | – | – | – | – | – | – | – | – | 0.1 µg/mL (≈ 0.287 µM) | 0.2 µg/mL (≈ 0.574 µM) | 0.1 µg/mL (≈ 0.287 µM) | 0.78 µg/mL (≈ 2.24 µM) | 0.05 µg/mL (≈ 0.144 µM) | 0.78 µg/mL (≈ 2.24 µM) | 0.1 µg/mL (≈ 0.287 µM) | 0.78 µg/mL (≈ 2.24 µM) | 0.05 µg/mL (≈ 0.144 µM) | 0.1 µg/mL (≈ 0.287 µM) | 1.56 µg/mL (≈ 4.48 µM) | – |
| CC1COc2c(N3CCN(C)CC3)c(Cl)cc3c(=O)c(C(=O)O)cn1c23 (stereo not drawn) [Id, 9-chloro-3-methyl-10-(4-methyl-1-piperazinyl)-7-oxo-2,3-dihydro-7H-pyrido[1,2,3-de][1,4]benzoxazine-6-carboxylic acid] | – | – | 0.1 µg/mL (≈ 0.265 µM) | ≤ 0.05 µg/mL | ≤ 0.05 µg/mL | 0.2 µg/mL (≈ 0.529 µM) | 0.1 µg/mL (≈ 0.265 µM) | 6.25 µg/mL (≈ 16.5 µM) | 0.1 µg/mL (≈ 0.265 µM) | – | – | – | – | – | – | – | – | – | – | – | MIC [10]: ≤ 0.05 µg/mL; MIC [11]: 12.5 µg/mL (≈ 33.1 µM); MIC [12]: ≤ 0.05 µg/mL; MIC [13]: 0.2 µg/mL (≈ 0.529 µM); MIC [14]: 0.78 µg/mL (≈ 2.06 µM) |
| CCn1cc(C(=O)O)c(=O)c2cnc(N3CCNCC3)nc21 [PPA, 8-ethyl-5,8-dihydro-5-oxo-2-(1-piperazinyl)-pyrido[2,3-d]pyrimidine-6-carboxylic acid, reference compound] | low toxicity | – | – | – | – | – | – | – | – | 6.25 µg/mL (≈ 20.6 µM) | – | – | 6.25 µg/mL (≈ 20.6 µM) | 6.25 µg/mL (≈ 20.6 µM) | 6.25 µg/mL (≈ 20.6 µM) | 1.56 µg/mL (≈ 5.14 µM) | > 100 µg/mL | – | 12.5 µg/mL (≈ 41.2 µM) | 25 µg/mL (≈ 82.4 µM) | antibacterial activity (in words) [27]: much weaker than the compounds of this invention; MIC ([16]; Enterobacter cloacae, 12001, 18 h): 1.56 µg/mL (≈ 5.14 µM); MIC ([17]; Proteus vulgaris, 3167, 18 h): 1.56 µg/mL (≈ 5.14 µM); MIC ([23]; Escherichia coli, 18 h): 1.56 µg/mL (≈ 5.14 µM); MIC [26]: 100 µg/mL (≈ 330 µM) |
